Assay results: ChEMBL document CHEMBL3588857, “Peroxisome proliferator-activated receptor gamma (PPARγ) has multiple binding points that accommodate ligands in various conformations: Structurally similar PPARγ partial agonists bind to PPARγ LBD in different conformations” (Bioorg Med Chem Lett, 2015)
Active and inactive are the calls of the source. The rule behind the calls is not given here.

Key:
[1] = biological target: T1, Peroxisome proliferator-activated receptor gamma (Homo sapiens) (UniProt P37231); assay: Antagonist activity at PPARgamma (unknown origin) assessed as inhibition of 10 uM pioglitazone-induced receptor transactivation at 0.1 to 10 uM
T1 sequence (whole entry): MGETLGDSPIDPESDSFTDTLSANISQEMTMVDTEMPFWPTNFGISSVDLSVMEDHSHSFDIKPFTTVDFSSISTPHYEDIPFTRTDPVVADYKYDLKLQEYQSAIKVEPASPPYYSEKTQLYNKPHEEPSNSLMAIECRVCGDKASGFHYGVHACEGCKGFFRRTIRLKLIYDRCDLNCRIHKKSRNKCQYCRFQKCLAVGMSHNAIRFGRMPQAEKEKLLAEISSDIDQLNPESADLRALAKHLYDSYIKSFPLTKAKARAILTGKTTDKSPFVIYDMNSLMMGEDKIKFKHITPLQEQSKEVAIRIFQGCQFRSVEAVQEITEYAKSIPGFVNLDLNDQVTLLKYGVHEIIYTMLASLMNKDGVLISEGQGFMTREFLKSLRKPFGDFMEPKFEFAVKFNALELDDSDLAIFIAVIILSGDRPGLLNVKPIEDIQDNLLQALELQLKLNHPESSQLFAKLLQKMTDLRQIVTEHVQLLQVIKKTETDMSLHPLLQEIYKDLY

[2] = biological target: T1, Peroxisome proliferator-activated receptor gamma (Homo sapiens); assay: Partial agonist activity at PPARgamma (unknown origin) assessed as induction of receptor transactivation at 0.1 to 10 uM relative to 10 uM pioglitazone

inhibition [1]: Dose-dependent effect
Activity [2]: Active
Structure (SMILES): CCCOc1ccc(C(=O)NS(=O)(=O)Cc2ccccc2)cc1CNC(=O)c1ccc(-c2ncccn2)cc1
